From patent US9056858B2, “Indazole and pyrazolopyridine compounds as CCR1 receptor antagonists” (Boehringer Ingelheim International GmbH, priority 2009, dated 2015)
pIC50: −log10 of the molar value.

Target: T1, CCR1 (Homo sapiens, UniProt P32246)
T1 construct: host or cells: Non-adherent cells
T1 sequence (P32246 1-355): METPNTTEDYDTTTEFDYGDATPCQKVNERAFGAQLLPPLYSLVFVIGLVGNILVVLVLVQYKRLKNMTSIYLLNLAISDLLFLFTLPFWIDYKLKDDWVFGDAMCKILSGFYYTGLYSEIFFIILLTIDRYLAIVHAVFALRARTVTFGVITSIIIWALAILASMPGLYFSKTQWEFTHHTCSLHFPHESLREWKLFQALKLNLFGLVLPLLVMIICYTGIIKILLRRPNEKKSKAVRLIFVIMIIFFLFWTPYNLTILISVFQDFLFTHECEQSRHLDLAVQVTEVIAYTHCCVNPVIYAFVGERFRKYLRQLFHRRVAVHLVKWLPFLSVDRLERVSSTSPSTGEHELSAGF
Test: functional cellular assay measuring calcium flux in CCR1 transfected cells (block of CCR1/MIP-1α interaction)
Format: cell-based
Conditions: cells stably expressing recombinant CCR1 and G-alpha-16, MIP-1alpha added at EC80
Description: Compounds are assessed for the ability to block the interaction of CCR1 and MIP-1α in a functional cellular assay measuring calcium flux in CCR1 transfected cells.
Non-adherent cells purchased from Chemicon Corporation (HTS005C), stably expressing recombinant CCR1 and G-alpha-16 are grown in RPMI 1640 medium (Mediatech 10-080-CM) supplemented with 10% FBS, 0.4 mg/mL Geneticin and penicillin/streptomycin. On the day of the assay, the cells are loaded with Calcium 4 dye (Molecular Devices R7448) with Probenecid (Invitrogen P346400) at 8E5 cells/mL for 1 hour at room temperature. After 1 hour, they are seeded in a 384-well tissue culture-treated plate at a density of 20,000 cells/well. Appropriately diluted test compound is added to the well to achieve a top concentration of 3,000 nM (diluted 4-fold with 10 doses total). The final concentration of DMSO is 1%. The buffer is HBSS (Invitrogen 14025) with 20 mM HEPES at pH 7.4. The cells incubate 30 minutes at 37 C and then 30 minutes at room temperature. The plates are transferred to the […] FDSS6000 where MIP-1alpha in 1% BSA is added at the EC80 final concentration. All plates must be read within 4 hours of the start of dye-loading. Wells +/− MIP-1alpha containing diluted DMSO instead of compound serve as the controls. Data are analyzed using Activity Base software.

SMILES	pIC50
COc1ccc(C2(NC(=O)c3cncc4c3cnn4-c3ccc(F)cc3)CCC2)cc1 [1-(4-Fluoro-phenyl)-1H-pyrazolo[3,4-c]pyridine-4-carboxylic acid [1-(4-methoxy-phenyl)-cyclobutyl]-amide]	7.29
O=C(NC1(c2ncc(Br)cn2)CC1)c1cncc2c1cnn2-c1ccc(F)cc1 [1-(4-Fluoro-phenyl)-1H-pyrazolo[3,4-c]pyridine-4-carboxylic acid [1-(5-bromo-pyrimidin-2-yl)-cyclopropyl]-amide]	7.35
CS(=O)(=O)c1ccc(C2(NC(=O)c3cncc4c3cnn4-c3ccc(F)cc3)CC2)o1 [1-(4-Fluoro-phenyl)-1H-pyrazolo[3,4-c]pyridine-4-carboxylic acid [1-(5-methanesulfonyl-furan-2-yl)-cyclopropyl]-amide]	8.40
CN(C)c1cccc(C2(NC(=O)c3cncc4c3cnn4-c3ccc(F)cc3)CC2)n1 [1-(4-Fluoro-phenyl)-1H-pyrazolo[3,4-c]pyridine-4-carboxylic acid [1-(6-dimethylamino-pyridin-2-yl)-cyclopropyl]-amide]	8.52
CS(=O)(=O)c1ccc(C2(NC(=O)c3cncc4c3cnn4-c3ccc(F)cc3)CC2)cn1 [1-(4-Fluoro-phenyl)-1H-pyrazolo[3,4-c]pyridine-4-carboxylic acid [1-(6-methanesulfonyl-pyridin-3-yl)-cyclopropyl]-amide]	8.15
O=C(NC1(c2ccc(N3CCOCC3)nc2)CC1)c1cncc2c1cnn2-c1ccc(F)cc1 [1-(4-Fluoro-phenyl)-1H-pyrazolo[3,4-c]pyridine-4-carboxylic acid [1-(6-morpholin-4-yl-pyridin-3-yl)-cyclopropyl]-amide]	8.22

Continued by rising pIC50, values first:

pIC50	SMILES
6.15	NCc1ccc(C2(NC(=O)c3cncc4c3cnn4-c3ccc(F)cc3)CC2)nc1 [1-(4-Fluoro-phenyl)-1H-pyrazolo[3,4-c]pyridine-4-carboxylic acid [1-(5-aminomethyl-pyridin-2-yl)-cyclopropyl]-amide]
7.21	O=C(NC1(c2noc(C3CC3)n2)CC1)c1cncc2c1cnn2-c1ccc(F)cc1 [1-(4-Fluoro-phenyl)-1H-pyrazolo[3,4-c]pyridine-4-carboxylic acid [1-(5-cyclopropyl-1,2,4-oxadiazol-3-yl)-cyclopropyl]-amide]
7.51	COc1ccnc(C2(NC(=O)c3cncc4c3cnn4-c3ccc(F)cc3)CC2)c1 [1-(4-Fluoro-phenyl)-1H-pyrazolo[3,4-c]pyridine-4-carboxylic acid [1-(4-methoxy-pyridin-2-yl)-cyclopropyl]-amide]
7.55	CNc1ccc(C2(NC(=O)c3cncc4c3cnn4-c3ccc(F)cc3)CC2)cn1 [1-(4-Fluoro-phenyl)-1H-pyrazolo[3,4-c]pyridine-4-carboxylic acid [1-(6-methylamino-pyridin-3-yl)-cyclopropyl]-amide]
7.72	O=C(NC1(c2ccc(Br)nc2)CC1)c1cncc2c1cnn2-c1ccc(F)cc1 [1-(4-Fluoro-phenyl)-1H-pyrazolo[3,4-c]pyridine-4-carboxylic acid [1-(6-bromo-pyridin-3-yl)-cyclopropyl]-amide]
7.77	COc1ccc(C2(NC(=O)c3cncc4c3cnn4-c3ccc(F)cc3)CC2)cc1 [1-(4-Fluoro-phenyl)-1H-pyrazolo[3,4-c]pyridine-4-carboxylic acid [1-(4-methoxy-phenyl)-cyclopropyl]-amide]
7.85	CS(=O)(=O)c1cnc(C2(NC(=O)c3cncc4c3cnn4-c3ccc(F)cc3)CC2)nc1 [1-(4-Fluoro-phenyl)-1H-pyrazolo[3,4-c]pyridine-4-carboxylic acid [1-(5-methanesulfonyl-pyrimidin-2-yl)-cyclopropyl]-amide]
8.05	O=C(NC1(c2ccc(Br)cn2)CC1)c1cncc2c1cnn2-c1ccc(F)cc1 [1-(4-Fluoro-phenyl)-1H-pyrazolo[3,4-c]pyridine-4-carboxylic acid [1-(5-bromo-pyridin-2-yl)-cyclopropyl]-amide]
